Results taken from PubChem BioAssay (NCI).
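Compound exposure: 48 hours, 5 concentrations, 96-well plates. At the TGI there is no net growth.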

tested on: IGROV1 ovarian; assay: DTP human tumour cell line panel, 48 h

Question: Which TGI does the source give for `COc1cc(CN2CCCCC2)cc2cc(C(=O)O)c(=O)oc12` here?
Answer: > 100 µM

Question: How did the TGI turn out when `Brc1ccc2c(-c3csc(-c4c[nH]c5cc(Br)ccc45)n3)c[nH]c2c1` was run?
Answer: > 75.2 µM

Question: Which TGI does the source give for `O=c1c2ccccc2nc(Nc2cccc(Cl)c2)n1/N=C/C=C/c1ccccc1` here?
Answer: > 100 µM

Question: Which TGI does the source give for `C=CCOCCCCC(C(C)=O)C(=O)OC` (stereo not given) here?
Answer: > 100 µM

Question: Which TGI does the source give for `CSc1nc2c(c(=O)n1C)N=C(c1ccccc1)[C@H](C(CC(=O)c1ccccc1)c1ccccc1)C(c1ccccc1)N2` (stereo not given in full) here?
Answer: > 100 µM

Question: Which TGI does the source give for `O=C(CC1=NCCN1)c1ccccc1` here?
Answer: > 750 µM

Question: Which TGI does the source give for `CC1(C)C=C(S(=O)(=O)c2ccccc2)Oc2ccccc2O1` here?
Answer: > 100 µM

tested on: HOP-92 NSCLC; assay: DTP human tumour cell line panel, 48 h

Question: With `COc1cc(CN2CCCCC2)cc2cc(C(=O)O)c(=O)oc12` as the compound, how does the TGI read?
Answer: > 100 µM

Question: `Brc1ccc2c(-c3csc(-c4c[nH]c5cc(Br)ccc45)n3)c[nH]c2c1` was tested. Which TGI did it give?
Answer: > 100 µM

Question: How did the TGI turn out when `O=c1c2ccccc2nc(Nc2cccc(Cl)c2)n1/N=C/C=C/c1ccccc1` was run?
Answer: > 100 µM

Question: Which TGI does the source give for `C=CCOCCCCC(C(C)=O)C(=O)OC` (stereo not given) here?
Answer: > 100 µM

Question: With `CSc1nc2c(c(=O)n1C)N=C(c1ccccc1)[C@H](C(CC(=O)c1ccccc1)c1ccccc1)C(c1ccccc1)N2` (stereo not given in full) as the compound, how does the TGI read?
Answer: > 100 µM

Question: For `O=C(CC1=NCCN1)c1ccccc1`, which TGI is on record?
Answer: > 750 µM

Question: For `CC1(C)C=C(S(=O)(=O)c2ccccc2)Oc2ccccc2O1`, which TGI is on record?
Answer: 67.5 µM

tested on: NCI-H226 lung; assay: DTP human tumour cell line panel, 48 h

Question: For `COc1cc(CN2CCCCC2)cc2cc(C(=O)O)c(=O)oc12`, which TGI is on record?
Answer: > 100 µM

Question: Which TGI does the source give for `Brc1ccc2c(-c3csc(-c4c[nH]c5cc(Br)ccc45)n3)c[nH]c2c1` here?
Answer: 99.7 µM

Question: Which TGI does the source give for `O=c1c2ccccc2nc(Nc2cccc(Cl)c2)n1/N=C/C=C/c1ccccc1` here?
Answer: > 100 µM

Question: `C=CCOCCCCC(C(C)=O)C(=O)OC` (stereo not given) was tested. Which TGI did it give?
Answer: > 100 µM

Question: `CSc1nc2c(c(=O)n1C)N=C(c1ccccc1)[C@H](C(CC(=O)c1ccccc1)c1ccccc1)C(c1ccccc1)N2` (stereo not given in full) was tested. Which TGI did it give?
Answer: > 100 µM

Question: `O=C(CC1=NCCN1)c1ccccc1` was tested. Which TGI did it give?
Answer: 742 µM

Question: `CC1(C)C=C(S(=O)(=O)c2ccccc2)Oc2ccccc2O1` was tested. Which TGI did it give?
Answer: > 100 µM

tested on: HCT-116 colon; assay: DTP human tumour cell line panel, 48 h

Question: With `COc1cc(CN2CCCCC2)cc2cc(C(=O)O)c(=O)oc12` as the compound, how does the TGI read?
Answer: > 100 µM

Question: For `Brc1ccc2c(-c3csc(-c4c[nH]c5cc(Br)ccc45)n3)c[nH]c2c1`, which TGI is on record?
Answer: 32.3 µM

Question: Which TGI does the source give for `O=c1c2ccccc2nc(Nc2cccc(Cl)c2)n1/N=C/C=C/c1ccccc1` here?
Answer: > 100 µM

Question: Which TGI does the source give for `C=CCOCCCCC(C(C)=O)C(=O)OC` (stereo not given) here?
Answer: > 100 µM

Question: For `CSc1nc2c(c(=O)n1C)N=C(c1ccccc1)[C@H](C(CC(=O)c1ccccc1)c1ccccc1)C(c1ccccc1)N2` (stereo not given in full), which TGI is on record?
Answer: > 100 µM

Question: With `O=C(CC1=NCCN1)c1ccccc1` as the compound, how does the TGI read?
Answer: > 750 µM

Question: Which TGI does the source give for `CC1(C)C=C(S(=O)(=O)c2ccccc2)Oc2ccccc2O1` here?
Answer: > 100 µM

tested on: KM12 colon; assay: DTP human tumour cell line panel, 48 h

Question: `COc1cc(CN2CCCCC2)cc2cc(C(=O)O)c(=O)oc12` was tested. Which TGI did it give?
Answer: > 100 µM

Question: `Brc1ccc2c(-c3csc(-c4c[nH]c5cc(Br)ccc45)n3)c[nH]c2c1` was tested. Which TGI did it give?
Answer: 25.1 µM

Question: Which TGI does the source give for `O=c1c2ccccc2nc(Nc2cccc(Cl)c2)n1/N=C/C=C/c1ccccc1` here?
Answer: > 100 µM

Question: For `C=CCOCCCCC(C(C)=O)C(=O)OC` (stereo not given), which TGI is on record?
Answer: > 100 µM

Question: Which TGI does the source give for `CSc1nc2c(c(=O)n1C)N=C(c1ccccc1)[C@H](C(CC(=O)c1ccccc1)c1ccccc1)C(c1ccccc1)N2` (stereo not given in full) here?
Answer: > 100 µM

Question: How did the TGI turn out when `O=C(CC1=NCCN1)c1ccccc1` was run?
Answer: > 750 µM

Question: Which TGI does the source give for `CC1(C)C=C(S(=O)(=O)c2ccccc2)Oc2ccccc2O1` here?
Answer: > 100 µM

tested on: NCI-H460 lung; assay: DTP human tumour cell line panel, 48 h

Question: How did the TGI turn out when `COc1cc(CN2CCCCC2)cc2cc(C(=O)O)c(=O)oc12` was run?
Answer: > 100 µM

Question: With `Brc1ccc2c(-c3csc(-c4c[nH]c5cc(Br)ccc45)n3)c[nH]c2c1` as the compound, how does the TGI read?
Answer: 53.8 µM

Question: For `O=c1c2ccccc2nc(Nc2cccc(Cl)c2)n1/N=C/C=C/c1ccccc1`, which TGI is on record?
Answer: > 100 µM

Question: How did the TGI turn out when `C=CCOCCCCC(C(C)=O)C(=O)OC` (stereo not given) was run?
Answer: > 100 µM

Question: `CSc1nc2c(c(=O)n1C)N=C(c1ccccc1)[C@H](C(CC(=O)c1ccccc1)c1ccccc1)C(c1ccccc1)N2` (stereo not given in full) was tested. Which TGI did it give?
Answer: > 100 µM

Question: With `O=C(CC1=NCCN1)c1ccccc1` as the compound, how does the TGI read?
Answer: > 511 µM

Question: How did the TGI turn out when `CC1(C)C=C(S(=O)(=O)c2ccccc2)Oc2ccccc2O1` was run?
Answer: > 100 µM

tested on: OVCAR-8 ovarian; assay: DTP human tumour cell line panel, 48 h

Question: With `COc1cc(CN2CCCCC2)cc2cc(C(=O)O)c(=O)oc12` as the compound, how does the TGI read?
Answer: > 100 µM

Question: `Brc1ccc2c(-c3csc(-c4c[nH]c5cc(Br)ccc45)n3)c[nH]c2c1` was tested. Which TGI did it give?
Answer: > 57.1 µM

Question: For `O=c1c2ccccc2nc(Nc2cccc(Cl)c2)n1/N=C/C=C/c1ccccc1`, which TGI is on record?
Answer: > 100 µM

Question: How did the TGI turn out when `C=CCOCCCCC(C(C)=O)C(=O)OC` (stereo not given) was run?
Answer: > 100 µM

Question: Which TGI does the source give for `CSc1nc2c(c(=O)n1C)N=C(c1ccccc1)[C@H](C(CC(=O)c1ccccc1)c1ccccc1)C(c1ccccc1)N2` (stereo not given in full) here?
Answer: > 100 µM

Question: With `O=C(CC1=NCCN1)c1ccccc1` as the compound, how does the TGI read?
Answer: > 750 µM

Question: `CC1(C)C=C(S(=O)(=O)c2ccccc2)Oc2ccccc2O1` was tested. Which TGI did it give?
Answer: > 100 µM

tested on: HCC-2998 colon; assay: DTP human tumour cell line panel, 48 h

Question: How did the TGI turn out when `COc1cc(CN2CCCCC2)cc2cc(C(=O)O)c(=O)oc12` was run?
Answer: > 100 µM

Question: `Brc1ccc2c(-c3csc(-c4c[nH]c5cc(Br)ccc45)n3)c[nH]c2c1` was tested. Which TGI did it give?
Answer: > 100 µM

Question: Which TGI does the source give for `O=c1c2ccccc2nc(Nc2cccc(Cl)c2)n1/N=C/C=C/c1ccccc1` here?
Answer: > 100 µM

Question: For `C=CCOCCCCC(C(C)=O)C(=O)OC` (stereo not given), which TGI is on record?
Answer: > 100 µM

Question: `CSc1nc2c(c(=O)n1C)N=C(c1ccccc1)[C@H](C(CC(=O)c1ccccc1)c1ccccc1)C(c1ccccc1)N2` (stereo not given in full) was tested. Which TGI did it give?
Answer: > 100 µM

Question: Which TGI does the source give for `O=C(CC1=NCCN1)c1ccccc1` here?
Answer: > 750 µM

Question: For `CC1(C)C=C(S(=O)(=O)c2ccccc2)Oc2ccccc2O1`, which TGI is on record?
Answer: 68.5 µM

tested on: CAKI-1 renal; assay: DTP human tumour cell line panel, 48 h

Question: With `COc1cc(CN2CCCCC2)cc2cc(C(=O)O)c(=O)oc12` as the compound, how does the TGI read?
Answer: > 100 µM

Question: How did the TGI turn out when `Brc1ccc2c(-c3csc(-c4c[nH]c5cc(Br)ccc45)n3)c[nH]c2c1` was run?
Answer: > 100 µM

Question: How did the TGI turn out when `O=c1c2ccccc2nc(Nc2cccc(Cl)c2)n1/N=C/C=C/c1ccccc1` was run?
Answer: > 100 µM

Question: With `C=CCOCCCCC(C(C)=O)C(=O)OC` (stereo not given) as the compound, how does the TGI read?
Answer: > 100 µM

Question: `CSc1nc2c(c(=O)n1C)N=C(c1ccccc1)[C@H](C(CC(=O)c1ccccc1)c1ccccc1)C(c1ccccc1)N2` (stereo not given in full) was tested. Which TGI did it give?
Answer: > 100 µM

Question: How did the TGI turn out when `O=C(CC1=NCCN1)c1ccccc1` was run?
Answer: > 750 µM

Question: Which TGI does the source give for `CC1(C)C=C(S(=O)(=O)c2ccccc2)Oc2ccccc2O1` here?
Answer: > 100 µM

tested on: A549 NSCLC; assay: DTP human tumour cell line panel, 48 h

Question: With `COc1cc(CN2CCCCC2)cc2cc(C(=O)O)c(=O)oc12` as the compound, how does the TGI read?
Answer: > 100 µM

Question: `Brc1ccc2c(-c3csc(-c4c[nH]c5cc(Br)ccc45)n3)c[nH]c2c1` was tested. Which TGI did it give?
Answer: > 50.7 µM

Question: Which TGI does the source give for `O=c1c2ccccc2nc(Nc2cccc(Cl)c2)n1/N=C/C=C/c1ccccc1` here?
Answer: > 100 µM

Question: How did the TGI turn out when `C=CCOCCCCC(C(C)=O)C(=O)OC` (stereo not given) was run?
Answer: > 100 µM

Question: With `CSc1nc2c(c(=O)n1C)N=C(c1ccccc1)[C@H](C(CC(=O)c1ccccc1)c1ccccc1)C(c1ccccc1)N2` (stereo not given in full) as the compound, how does the TGI read?
Answer: > 100 µM

Question: With `O=C(CC1=NCCN1)c1ccccc1` as the compound, how does the TGI read?
Answer: > 285 µM

Question: With `CC1(C)C=C(S(=O)(=O)c2ccccc2)Oc2ccccc2O1` as the compound, how does the TGI read?
Answer: > 100 µM
